This passage reports IC50 results from patent publication US11299487B2, “Compounds and compositions as modulators of TLR signaling” (Neuropore Therapies, Inc., priority 2019, dated 2022).

What all share (type): cell-based
One assay concerns the target T1, human TLR9 (Homo sapiens, UniProt Q9NR96).
T1 construct: host or cells: HEK-Blue hTLR9 (HEK-293)
T1 sequence (Q9NR96 26-1032): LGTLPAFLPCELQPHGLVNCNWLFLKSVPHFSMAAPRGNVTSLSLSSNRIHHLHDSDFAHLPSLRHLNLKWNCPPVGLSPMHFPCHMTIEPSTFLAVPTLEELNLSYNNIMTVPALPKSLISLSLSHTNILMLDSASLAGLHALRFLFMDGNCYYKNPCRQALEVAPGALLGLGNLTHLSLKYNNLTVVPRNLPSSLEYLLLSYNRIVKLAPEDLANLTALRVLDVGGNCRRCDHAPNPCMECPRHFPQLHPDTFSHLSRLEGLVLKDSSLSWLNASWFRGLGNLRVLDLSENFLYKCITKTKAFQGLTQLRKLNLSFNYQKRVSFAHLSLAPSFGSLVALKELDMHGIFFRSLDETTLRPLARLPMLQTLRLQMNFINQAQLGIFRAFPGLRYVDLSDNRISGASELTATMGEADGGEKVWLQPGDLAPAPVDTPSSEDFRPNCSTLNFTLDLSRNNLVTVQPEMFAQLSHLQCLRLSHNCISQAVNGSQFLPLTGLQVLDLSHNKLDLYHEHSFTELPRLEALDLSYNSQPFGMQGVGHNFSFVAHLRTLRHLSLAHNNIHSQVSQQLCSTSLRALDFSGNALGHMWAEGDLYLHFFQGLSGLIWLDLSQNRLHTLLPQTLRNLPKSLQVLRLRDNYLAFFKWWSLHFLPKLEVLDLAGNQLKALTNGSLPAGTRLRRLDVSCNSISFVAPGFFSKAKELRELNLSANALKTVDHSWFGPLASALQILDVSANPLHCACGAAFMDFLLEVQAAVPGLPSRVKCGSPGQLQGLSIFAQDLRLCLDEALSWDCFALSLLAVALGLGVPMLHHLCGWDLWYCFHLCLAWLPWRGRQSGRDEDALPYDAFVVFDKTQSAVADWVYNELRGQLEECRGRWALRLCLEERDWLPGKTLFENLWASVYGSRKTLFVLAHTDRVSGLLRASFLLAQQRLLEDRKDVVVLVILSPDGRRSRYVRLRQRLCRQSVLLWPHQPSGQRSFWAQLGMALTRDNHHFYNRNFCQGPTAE
Briefly: HEK-Blue hTLR9 assay (SEAP reporter) with agonist ODN 2006. The conditions noted are these: Table B; HEK-Blue hTLR9 cells, ~3×EC50 ODN 2006, 18 h; exact values 8-point dilutions, approximate (~ or <) 4-point dilutions; read-out: ~IC50 (μM) with ODN2006. The procedure:
Synthetic ODNs (ODN 2006 (ODN7909), class B CpG oligonucleotide, TLR9 agonist) was obtained from InvivoGen and was dissolved in endotoxin-free water to a concentration 500 μM, vortexed until complete solubilization, and stored in aliquots at −20° C. Prior to addition to cells, an aliquot of the dissolved ligand was vortexed shortly and then was diluted in medium to 50 μM. The EC50 of the agonist for each assay run was determined by using 3-fold dilutions from the starting concentration 10 μM.
Test compounds were solubilized fresh to 10-20 mM stocks in DMSO and sonicated for 5-10 minutes in a water bath sonicator. Serial dilutions were prepared in DMSO, and then diluted in medium. The final concentration of DMSO used in the assay was 1%.
HEK-Blue hTLR9 reporter cells (InvivoGen) are HEK-293 cells stably expressing both the human TLR9 gene and a secreted embryonic alkaline phosphatase (SEAP) reporter construct downstream of NFκB promotor sites. HEK-Blue hTLR9 cells were cultured according to manufacturer's protocol using Dulbecco's Modified Eagle Medium (DMEM; Gibco) containing 1× GlutaMax (Gibco), 10% heat-inactivated Fetal Bovine Serum (Gibco), Pen-Strep (50 U/mL penicillin, 50 μg/mL streptomycin, Gibco), 100 μg/mL Normocin (InvivoGen), and the selective antibiotics, 10 μg/mL Blasticidin (InvivoGen), and 100 μg/mL Zeocin (InvivoGen). Quanti-Blue reagent (InvivoGen) for detection and quantification of secreted alkaline phosphatase was dissolved in 100 mL of endotoxin-free water, warmed to 37° C. for 30 minutes and then filtered using a 0.2 μm membrane.
On day 1, 50 μL of each test compound dilution in duplicates or a vehicle control was added to each well of a 96-well plate followed by addition of 150 μL of HEK-Blue hTLR9 cell suspension (1×10^5 cells/well) and incubated at 37° C./5% CO2 for 2 h. Next, 50 μL of an approximate 3×EC50 concentration of TLR9 agonist, ODN 2006, was added to the wells containing test compounds or the vehicle control. The plates were then incubated at 37° C./5% CO2 for 18 h. For each assay run, vehicle-treated HEK-Blue hTLR9 cells were treated with serial dilutions of agonist to determine EC50 values for the respective run.
On day 2, secreted alkaline phosphatase (SEAP) activity was detected in cell culture supernatants. In brief, 30 μL was collected from each well and transferred to a 96-well plate. Next, 200 μL of Quanti-Blue detection reagent was added to each well. Plates were incubated at 37° C. for 60 min. and SEAP activity was assessed by spectrophotometer OD reading at 655 nm. Table A and Table B show the activities of the compounds tested in HEK-Blue hTLR9 cells against ODN 2006. The activities of the compounds against ODN 2006 are presented as IC50 values which were defined as concentrations of the compounds where percent inhibition of the signal induced by agonist is equal to 50. Exact IC50 values were calculated based on 8-point dilutions for each compound. Approximate IC50 values (˜ or <) were calculated based on 4-point dilutions for each compound.

Assay [1] has as its target T2, human TLR2 (Homo sapiens, UniProt O60603).
T2 construct: host or cells: HEK-Blue hTLR2 (HEK-293)
Briefly: HEK-Blue hTLR2 antagonism assay (SEAP reporter) with agonist Pam2CSK4 (TLR2/6 agonist). The conditions noted are these: Table B; HEK-Blue hTLR2 cells, ~3×EC50 Pam2CSK4, 18 h, SEAP OD 655 nm, 8-point dilutions.

The target of assay [2] is T2, human TLR2. Briefly: HEK-Blue hTLR2 antagonism assay (SEAP reporter) with agonist Pam3CSK4 (TLR1/2 agonist). The conditions noted are these: Table B; HEK-Blue hTLR2 cells, ~3×EC50 Pam3CSK4, 18 h, SEAP OD 655 nm, 8-point dilutions.

T2 sequence (O60603 21-784): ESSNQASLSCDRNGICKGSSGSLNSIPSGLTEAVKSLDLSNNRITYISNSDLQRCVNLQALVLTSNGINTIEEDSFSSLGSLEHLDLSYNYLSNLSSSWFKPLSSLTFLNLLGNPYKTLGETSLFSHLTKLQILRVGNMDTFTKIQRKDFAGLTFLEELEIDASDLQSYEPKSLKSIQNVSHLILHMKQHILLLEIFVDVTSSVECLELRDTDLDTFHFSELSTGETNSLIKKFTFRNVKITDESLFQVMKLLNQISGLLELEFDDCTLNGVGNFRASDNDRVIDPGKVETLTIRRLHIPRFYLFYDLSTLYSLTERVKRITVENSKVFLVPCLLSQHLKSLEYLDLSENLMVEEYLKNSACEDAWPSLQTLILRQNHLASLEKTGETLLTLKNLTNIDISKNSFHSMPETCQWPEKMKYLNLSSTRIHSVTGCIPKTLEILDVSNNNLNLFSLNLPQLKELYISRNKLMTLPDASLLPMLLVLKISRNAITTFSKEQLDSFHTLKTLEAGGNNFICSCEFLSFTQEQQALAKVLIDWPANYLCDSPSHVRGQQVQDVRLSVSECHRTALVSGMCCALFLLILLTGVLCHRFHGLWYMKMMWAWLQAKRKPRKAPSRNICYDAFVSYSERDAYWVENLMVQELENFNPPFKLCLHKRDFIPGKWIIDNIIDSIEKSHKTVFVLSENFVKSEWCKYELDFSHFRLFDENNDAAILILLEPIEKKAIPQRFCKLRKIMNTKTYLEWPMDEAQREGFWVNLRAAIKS

Take `O=Cc1cc(NC(=O)Nc2ccc(N3CCCC3)cc2)cc(F)c1O` [Compound B65, 1-(3-fluoro-5-formyl-4-hydroxyphenyl)-3-(4-(pyrrolidin-1-yl)phenyl)urea]: the values for the IC50 at human TLR9, on human TLR2 [1] and at human TLR2 [2] were below 1.2 µM, 8.7 µM and 3.7 µM, respectively.
For `O=Cc1cc(C(=O)Nc2ccc(N3CCC(F)(F)C3)cc2)cc(F)c1O` [Compound B67, N-(4-(3,3-difluoropyrrolidin-1-yl)phenyl)-3-fluoro-5-formyl-4-hydroxybenzamide] the same measures were below 1.2 µM, 3.3 µM and 1.2 µM.
For `O=Cc1cc(C(=O)Nc2ccc(N3CCC(F)(F)CC3)cc2)cc(F)c1O` [Compound B68, N-(4-(4,4-difluoropiperidin-1-yl)phenyl)-3-fluoro-5-formyl-4-hydroxybenzamide] the same measures were below 1.2 µM, 3.5 µM and 1 µM.
The corresponding values for `O=Cc1cc(C(=O)Nc2cccc(N3CCCC3)c2)cc(F)c1O` [Compound B71, 3-fluoro-5-formyl-4-hydroxy-N-(3-(pyrrolidin-1-yl)phenyl)benzamide] are around 2.5 µM, 2.6 µM and 1.7 µM.
For the compound `CC1(C)CCN(c2ccc(NC(=O)c3cc(F)c(O)c(C=O)c3)cc2)C1` [Compound B73, N-(4-(3,3-dimethylpyrrolidin-1-yl)phenyl)-3-fluoro-5-formyl-4-hydroxybenzamide], the IC50 on human TLR9 was 0.3 µM; at human TLR2 [1], 0.6 µM; on human TLR2 [2], 0.3 µM.
As to `O=Cc1cc(C(=O)Nc2ccc(N3CC4CC4C3)cc2)cc(F)c1O` (stereo not drawn) [Compound B74, N-(4-(3-azabicyclo[3.1.0]hexan-3-yl)phenyl)-3-fluoro-5-formyl-4-hydroxybenzamide], the IC50 on human TLR9 is below 1.2 µM; at human TLR2 [1], 1.6 µM; on human TLR2 [2], 0.8 µM.
The corresponding values for `O=Cc1cc(C(=O)Nc2ccc(N3C[C@H]4COC[C@H]4C3)cc2)cc(F)c1O` [Compound B75, 3-fluoro-5-formyl-4-hydroxy-N-(4-((3aR,6aS)-tetrahydro-1H-furo[3,4-c]pyrrol-5(3H)-yl)phenyl)benzamide] are around 4.7 µM, 13 µM and 6 µM.
For `O=Cc1cc(C(=O)Nc2ccc(N3C[C@H]4CCC[C@H]4C3)cc2)cc(F)c1O` [Compound B76, 3-fluoro-5-formyl-N-(4-((3aR,6aS)-hexahydrocyclopenta[c]pyrrol-2(1H)-yl)phenyl)-4-hydroxybenzamide] the same measures were below 1.2 µM, 1.2 µM and 0.6 µM.
The corresponding values for `O=Cc1cc(C(=O)Nc2ccc(N3CC4(CCC4)C3)cc2)cc(F)c1O` [Compound B77, N-(4-(2-azaspiro[3.3]heptan-2-yl)phenyl)-3-fluoro-5-formyl-4-hydroxybenzamide] are below 1.2 µM, 0.6 µM and 0.3 µM.
Turning to `CC1(C)CN(c2ccc(NC(=O)c3cc(F)c(O)c(C=O)c3)cn2)c2ccccc21` [Compound B87, N-(6-(3,3-dimethylindolin-1-yl)pyridin-3-yl)-3-fluoro-5-formyl-4-hydroxybenzamide], the figures for the IC50 at human TLR9, at human TLR2 [1] and on human TLR2 [2] were 0.1 µM, 0.5 µM and 0.4 µM, respectively.

What is called IC50 is the midpoint of a concentration-inhibition curve.
